Experimental data from patent publication US20070190070A1, “Methods of using and compositions comprising selective cytokine inhibitory drugs for the treatment and management of disorders of the central nervous system” (priority 2004, published 2007).

Tests used:
[1] = Cardiovascular and respiratory function in anesthetized dogs; type: in vivo; settings: anesthetized Beagle dogs; 400, 800 and 1,200 mg/kg/day via jugular vein infusion; compared to the vehicle control group
Experimental: The effects of 3-(3,4-dimethoxy-phenyl)-3-(1-oxo-1,3-dihydro-isoindol-2-yl)-propionamide on cardiovascular and respiratory function are investigated in anesthetized dogs. Two groups of Beagle dogs (2/sex/group) are used. One group receives three doses of vehicle only and the other receives three ascending doses of 3-(3,4-dimethoxy-phenyl)-3-(1-oxo-1,3-dihydro-isoindol-2-yl)-propionamide (400, 800, and 1,200 mg/kg/day). In all cases, doses of 3-(3,4-dimethoxy-phenyl)-3-(1-oxo-1,3-dihydro-isoindol-2-yl)-propionamide or vehicle are successively administered via infusion through the jugular vein separated by intervals of at least 30 minutes.

CBP^+/− mutant mice = settings: cited from earlier work
patients with PD = settings: cited from earlier work
[2] = tested on: rat mesencephalonic neurons; settings: in the presence of the adenylate cyclase activator forskolin; cited from earlier work
[3] = tested on: C57BL/6 mice injected with MPTP; settings: cited from earlier work

COc1ccc(C(CC(N)=O)N2Cc3ccccc3C2=O)cc1OC (centres unmarked) [3-(3,4-Dimethoxy-phenyl)-3-(1-oxo-1,3-dihydro-isoindol-2-yl)-propionamide]
cardiovascular and respiratory changes [1]: minimal at all doses

COc1ccc([C@H]2CNC(=O)[C@H](Cc3cccc(C)c3)C2)cc1OC1CCCC1 [HT0712]
long-term memory defects (CBP^+/− mutant mice): abolished the long-term memory defects

COc1ccc(C2CNC(=O)C2)cc1OC1CCCC1 (centres unmarked) [Rolipram]
long-term memory defects (CBP^+/− mutant mice): abolished the long-term memory defects
deterioration of the therapeutic action of dopamine against Lisuride (patients with PD; 3 mg per day, patients with PD already under treatment): no significant deterioration
dose-limiting side effect (patients with PD; Phase II trials of PD): nausea

COCCOc1cc(OCCOC)cc(-c2nc(C)cc3cc(OC)c(OC)cc23)c1 [SDZ-MNS 949]
uptake of dopamine [2]: stimulate uptake of dopamine
dopamine depletion in the striatum [3]: reduce dopamine depletion in the striatum
loss of tyrosine hydroxylase-immunopositive neurons in the substantia nigra [3]: reduce loss of tyrosine hydroxylase-immunopositive neurons

CCCCOc1cc(CC2CNC(=O)N2)ccc1OC (centres unmarked) [Ro-20 1724]
uptake of dopamine [2]: stimulate uptake of dopamine
dopamine depletion in the striatum [3]: reduce dopamine depletion in the striatum
loss of tyrosine hydroxylase-immunopositive neurons in the substantia nigra [3]: reduce loss of tyrosine hydroxylase-immunopositive neurons
